Reference: the supplement of paper PMC10307832

What was measured:
Assay in all cases: relative viability (nuclei count vs DMSO), 5 days (fraction); higher = more cells survive
[1] = compound: CCN(CCO)CCCC(C)Nc1ccnc2cc(Cl)ccc12 [Hydroxychloroquine] + COc1cc2c(Oc3ccc(NC(=O)C4(C(=O)Nc5ccc(F)cc5)CC4)cc3F)ccnc2cc1OCCCN1CCOCC1 [Foretinib] (partner 0.25 µM)
In short: (§1)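 Five library-drug doses in √10 steps were combined with a fixed anchor-drug dose, or a single drug was given alone, by pin tool to lung cancer cell lines in 1536-well plates the day after seeding. Nuclei were stained and counted after 5 days. Relative viability is the nuclei count in treated wells over that in vehicle wells, taken as the median of duplicate plates.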

[2] = compound: CCN(CCO)CCCC(C)Nc1ccnc2cc(Cl)ccc12 [Hydroxychloroquine] + Cc1cc(Nc2cc(N3CCN(C)CC3)nc(Sc3ccc(NC(=O)C4CC4)cc3)n2)n[nH]1 [Tozasertib] (partner 0.1 µM)
In short: as §1

[3] = compound: CCN(CCO)CCCC(C)Nc1ccnc2cc(Cl)ccc12 [Hydroxychloroquine] + CCNC(=O)c1noc(-c2cc(C(C)C)c(O)cc2O)c1-c1ccc(CN2CCOCC2)cc1 [Luminespib] (partner 0.01 µM)
In short: as §1

[4] = compound: CCN(CCO)CCCC(C)Nc1ccnc2cc(Cl)ccc12 [Hydroxychloroquine] + NC(=O)Nc1cc(-c2cccc(F)c2)sc1C(=O)N[C@H]1CCCNC1 [AZD7762] (partner 0.2 µM)
In short: as §1

Cell Line | relative viability ([1]; first compound 0.5 µM) | relative viability ([1]; first compound 1.581 µM) | relative viability ([1]; first compound 5 µM) | relative viability ([1]; first compound 15.81 µM) | relative viability ([1]; first compound 50 µM) | relative viability ([2]; first compound 0.5 µM) | relative viability ([2]; first compound 1.581 µM) | relative viability ([2]; first compound 5 µM) | relative viability ([2]; first compound 15.81 µM) | relative viability ([2]; first compound 50 µM) | relative viability ([3]; first compound 0.5 µM) | relative viability ([3]; first compound 1.581 µM) | relative viability ([3]; first compound 5 µM) | relative viability ([3]; first compound 15.81 µM) | relative viability ([3]; first compound 50 µM) | relative viability ([4]; first compound 0.5 µM) | relative viability ([4]; first compound 1.581 µM) | relative viability ([4]; first compound 5 µM) | relative viability ([4]; first compound 15.81 µM) | relative viability ([4]; first compound 50 µM)
201T | 1.21 | 1.05 | 1.03 | 1.2 | 1.2 | 0.941 | 0.954 | 0.951 | 0.966 | 1.08 | 0.992 | 1.04 | 1.07 | 1.03 | 1.05 | 0.571 | 0.809 | 0.759 | 0.59 | 0.658
A-427 | 1.05 | 1.09 | 0.974 | 1.15 | 1.16 | 0.207 | 0.172 | 0.2 | 0.207 | 0.232 | 1.22 | 0.84 | 0.917 | 0.929 | 0.869 | 0.727 | 0.802 | 0.769 | 0.696 | 0.671
ABC-1 | 0.761 | 0.984 | 1.18 | 1.25 | 1.28 | 0.162 | 0.136 | 0.166 | 0.172 | 0.165 | 0.495 | 0.47 | 0.668 | 0.564 | 0.785 | 0.754 | 0.917 | 0.797 | 0.995 | 0.711
BEN | 0.647 | 0.634 | 0.588 | 0.567 | 0.577 | 0.606 | 0.465 | 0.551 | 0.501 | 0.622 | 0.382 | 0.331 | 0.309 | 0.311 | 0.33 | 0.795 | 0.652 | 0.767 | 0.776 | 0.759
CAL-12T | 0.974 | 1.04 | 1.04 | 1.33 | 1.06 | 0.342 | 0.276 | 0.336 | 0.296 | 0.378 | 0.286 | 0.319 | 0.363 | 0.511 | 0.373 | 0.571 | 0.804 | 0.596 | 0.599 | 0.659
ChaGo-K-1 | 0.939 | 1.04 | 0.929 | 0.911 | 1.04 | 0.224 | 0.18 | 0.222 | 0.228 | 0.233 | 0.615 | 0.626 | 0.55 | 0.594 | 0.643 | 0.775 | 0.88 | 0.821 | 0.901 | 0.998
EKVX | 0.824 | 0.795 | 0.753 | 0.767 | 0.75 | 0.401 | 0.316 | 0.38 | 0.374 | 0.494 | 0.894 | 0.887 | 0.836 | 0.836 | 0.865 | 0.549 | 0.772 | 0.753 | 0.653 | 0.759
EMC-BAC-2 | 0.998 | 0.877 | 1.08 | 0.941 | 0.985 | 0.307 | 0.289 | 0.31 | 0.286 | 0.258 | 1.2 | 1.03 | 1.14 | 1.18 | 1.19 | 1.12 | 0.887 | 1.01 | 1.07 | 1.11
EPLC-272H | 0.776 | 0.673 | 0.709 | 0.703 | 0.799 | 0.262 | 0.152 | 0.26 | 0.257 | 0.287 | 0.188 | 0.388 | 0.264 | 0.289 | 0.33 | 0.168 | 0.207 | 0.214 | 0.232 | 0.193
H3255 | 0.924 | 0.84 | 0.818 | 0.783 | 0.798 | 0.687 | 0.558 | 0.682 | 0.796 | 0.677 | 0.966 | 0.874 | 0.912 | 0.819 | 0.742 | 0.857 | 0.897 | 0.875 | 0.882 | 0.891
HARA | 0.957 | 0.918 | 0.891 | 0.921 | 1.07 | 0.221 | 0.0946 | 0.0888 | 0.11 | 0.099 | 1.15 | 1.09 | 0.789 | 0.542 | 1.01 | 0.263 | 0.373 | 0.405 | 0.219 | 0.376
HCC-15 | 1.1 | 1.04 | 1.04 | 1.04 | 1.05 | 0.392 | 0.399 | 0.412 | 0.321 | 0.441 | 0.433 | 0.39 | 0.25 | 0.252 | 0.503 | 1.29 | 1.15 | 1.11 | 1.35 | 1.49
HCC-827 | 1.13 | 0.956 | 1.05 | 1.2 | 1.08 | 0.442 | 0.442 | 0.513 | 0.467 | 0.456 | 0.781 | 0.629 | 0.686 | 0.522 | 0.85 | 0.207 | 0.227 | 0.237 | 0.264 | 0.22
HOP-62 | 1.15 | 1.24 | 1.14 | 1.27 | 1.23 | 0.365 | 0.316 | 0.38 | 0.43 | 0.413 | 1 | 0.987 | 1.01 | 1.09 | 1 | 0.448 | 0.968 | 0.661 | 0.626 | 0.732
NCI-H522 | – | – | – | – | – | 0.524 | 0.619 | 0.607 | 0.632 | 0.525 | 1.17 | 1.12 | 1.08 | 1.31 | 1.32 | 0.712 | – | 0.674 | 0.974 | 0.907
